Results from ChEMBL document CHEMBL5370547, “NSD3: Advances in cancer therapeutic potential and inhibitors research” (Eur J Med Chem, 2023).
Starred links: 1 amine or outer side, 2 acyl side, 3 side chain; linkers in the order of their positions; H or OH if unused. Non-standard residues stand in square brackets, D forms with d. Residues, ends and D or L forms follow the SMILES beside them. X1 = CCC[C@H](C)[C@H](N[*:1])C(=O)[*:2]

Assays:
[1] = target: T1, Histone-lysine N-methyltransferase NSD3 (Homo sapiens, UniProt Q9BZ95); assay: Inhibition of human NSD3 overexpressed in Escherichia coli BL21(DE3) using nucleosome as substrate by SPA analysis
T1 sequence (Q9BZ95 whole entry): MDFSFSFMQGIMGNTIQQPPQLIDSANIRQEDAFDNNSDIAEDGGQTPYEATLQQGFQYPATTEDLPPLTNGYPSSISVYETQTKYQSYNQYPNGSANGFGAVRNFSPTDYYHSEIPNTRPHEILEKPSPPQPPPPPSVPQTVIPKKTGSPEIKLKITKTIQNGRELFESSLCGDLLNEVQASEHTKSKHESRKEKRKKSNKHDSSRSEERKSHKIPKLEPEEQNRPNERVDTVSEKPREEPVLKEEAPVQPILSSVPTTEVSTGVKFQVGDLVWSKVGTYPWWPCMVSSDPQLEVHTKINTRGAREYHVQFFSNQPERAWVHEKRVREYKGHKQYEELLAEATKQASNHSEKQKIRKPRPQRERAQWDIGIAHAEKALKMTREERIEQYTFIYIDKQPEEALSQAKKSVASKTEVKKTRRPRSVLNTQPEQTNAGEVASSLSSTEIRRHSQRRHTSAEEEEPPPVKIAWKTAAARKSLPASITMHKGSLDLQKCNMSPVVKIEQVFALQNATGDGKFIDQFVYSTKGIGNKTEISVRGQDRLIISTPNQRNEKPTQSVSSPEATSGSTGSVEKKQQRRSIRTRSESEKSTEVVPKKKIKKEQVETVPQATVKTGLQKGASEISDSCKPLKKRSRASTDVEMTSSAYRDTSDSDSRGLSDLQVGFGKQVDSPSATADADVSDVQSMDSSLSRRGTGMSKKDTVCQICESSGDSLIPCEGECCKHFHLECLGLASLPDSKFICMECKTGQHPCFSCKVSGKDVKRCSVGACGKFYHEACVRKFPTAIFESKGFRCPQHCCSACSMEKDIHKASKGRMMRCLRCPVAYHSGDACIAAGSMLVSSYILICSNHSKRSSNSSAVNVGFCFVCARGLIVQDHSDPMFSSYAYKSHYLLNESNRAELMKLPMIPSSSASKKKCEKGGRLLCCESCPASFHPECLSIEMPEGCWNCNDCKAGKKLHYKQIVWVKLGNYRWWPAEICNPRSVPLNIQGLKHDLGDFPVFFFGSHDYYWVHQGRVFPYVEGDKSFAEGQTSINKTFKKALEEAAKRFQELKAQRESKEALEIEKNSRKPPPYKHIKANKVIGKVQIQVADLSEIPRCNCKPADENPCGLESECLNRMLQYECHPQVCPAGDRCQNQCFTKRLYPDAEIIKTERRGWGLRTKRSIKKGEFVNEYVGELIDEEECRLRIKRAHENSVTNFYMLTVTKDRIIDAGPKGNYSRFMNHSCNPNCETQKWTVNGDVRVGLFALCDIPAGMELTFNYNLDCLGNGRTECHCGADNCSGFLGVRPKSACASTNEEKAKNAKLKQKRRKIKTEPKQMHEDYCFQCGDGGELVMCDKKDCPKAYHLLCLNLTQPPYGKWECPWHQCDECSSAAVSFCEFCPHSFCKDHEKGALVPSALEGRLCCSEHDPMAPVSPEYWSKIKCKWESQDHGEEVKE

[2] = target: T2, Histone-lysine N-methyltransferase, H3 lysine-36 specific (Homo sapiens, UniProt Q96L73); assay: Inhibition of human NSD1 overexpressed in Escherichia coli BL21(DE3) using nucleosome as substrate by SPA analysis
T2 sequence (Q96L73 whole entry): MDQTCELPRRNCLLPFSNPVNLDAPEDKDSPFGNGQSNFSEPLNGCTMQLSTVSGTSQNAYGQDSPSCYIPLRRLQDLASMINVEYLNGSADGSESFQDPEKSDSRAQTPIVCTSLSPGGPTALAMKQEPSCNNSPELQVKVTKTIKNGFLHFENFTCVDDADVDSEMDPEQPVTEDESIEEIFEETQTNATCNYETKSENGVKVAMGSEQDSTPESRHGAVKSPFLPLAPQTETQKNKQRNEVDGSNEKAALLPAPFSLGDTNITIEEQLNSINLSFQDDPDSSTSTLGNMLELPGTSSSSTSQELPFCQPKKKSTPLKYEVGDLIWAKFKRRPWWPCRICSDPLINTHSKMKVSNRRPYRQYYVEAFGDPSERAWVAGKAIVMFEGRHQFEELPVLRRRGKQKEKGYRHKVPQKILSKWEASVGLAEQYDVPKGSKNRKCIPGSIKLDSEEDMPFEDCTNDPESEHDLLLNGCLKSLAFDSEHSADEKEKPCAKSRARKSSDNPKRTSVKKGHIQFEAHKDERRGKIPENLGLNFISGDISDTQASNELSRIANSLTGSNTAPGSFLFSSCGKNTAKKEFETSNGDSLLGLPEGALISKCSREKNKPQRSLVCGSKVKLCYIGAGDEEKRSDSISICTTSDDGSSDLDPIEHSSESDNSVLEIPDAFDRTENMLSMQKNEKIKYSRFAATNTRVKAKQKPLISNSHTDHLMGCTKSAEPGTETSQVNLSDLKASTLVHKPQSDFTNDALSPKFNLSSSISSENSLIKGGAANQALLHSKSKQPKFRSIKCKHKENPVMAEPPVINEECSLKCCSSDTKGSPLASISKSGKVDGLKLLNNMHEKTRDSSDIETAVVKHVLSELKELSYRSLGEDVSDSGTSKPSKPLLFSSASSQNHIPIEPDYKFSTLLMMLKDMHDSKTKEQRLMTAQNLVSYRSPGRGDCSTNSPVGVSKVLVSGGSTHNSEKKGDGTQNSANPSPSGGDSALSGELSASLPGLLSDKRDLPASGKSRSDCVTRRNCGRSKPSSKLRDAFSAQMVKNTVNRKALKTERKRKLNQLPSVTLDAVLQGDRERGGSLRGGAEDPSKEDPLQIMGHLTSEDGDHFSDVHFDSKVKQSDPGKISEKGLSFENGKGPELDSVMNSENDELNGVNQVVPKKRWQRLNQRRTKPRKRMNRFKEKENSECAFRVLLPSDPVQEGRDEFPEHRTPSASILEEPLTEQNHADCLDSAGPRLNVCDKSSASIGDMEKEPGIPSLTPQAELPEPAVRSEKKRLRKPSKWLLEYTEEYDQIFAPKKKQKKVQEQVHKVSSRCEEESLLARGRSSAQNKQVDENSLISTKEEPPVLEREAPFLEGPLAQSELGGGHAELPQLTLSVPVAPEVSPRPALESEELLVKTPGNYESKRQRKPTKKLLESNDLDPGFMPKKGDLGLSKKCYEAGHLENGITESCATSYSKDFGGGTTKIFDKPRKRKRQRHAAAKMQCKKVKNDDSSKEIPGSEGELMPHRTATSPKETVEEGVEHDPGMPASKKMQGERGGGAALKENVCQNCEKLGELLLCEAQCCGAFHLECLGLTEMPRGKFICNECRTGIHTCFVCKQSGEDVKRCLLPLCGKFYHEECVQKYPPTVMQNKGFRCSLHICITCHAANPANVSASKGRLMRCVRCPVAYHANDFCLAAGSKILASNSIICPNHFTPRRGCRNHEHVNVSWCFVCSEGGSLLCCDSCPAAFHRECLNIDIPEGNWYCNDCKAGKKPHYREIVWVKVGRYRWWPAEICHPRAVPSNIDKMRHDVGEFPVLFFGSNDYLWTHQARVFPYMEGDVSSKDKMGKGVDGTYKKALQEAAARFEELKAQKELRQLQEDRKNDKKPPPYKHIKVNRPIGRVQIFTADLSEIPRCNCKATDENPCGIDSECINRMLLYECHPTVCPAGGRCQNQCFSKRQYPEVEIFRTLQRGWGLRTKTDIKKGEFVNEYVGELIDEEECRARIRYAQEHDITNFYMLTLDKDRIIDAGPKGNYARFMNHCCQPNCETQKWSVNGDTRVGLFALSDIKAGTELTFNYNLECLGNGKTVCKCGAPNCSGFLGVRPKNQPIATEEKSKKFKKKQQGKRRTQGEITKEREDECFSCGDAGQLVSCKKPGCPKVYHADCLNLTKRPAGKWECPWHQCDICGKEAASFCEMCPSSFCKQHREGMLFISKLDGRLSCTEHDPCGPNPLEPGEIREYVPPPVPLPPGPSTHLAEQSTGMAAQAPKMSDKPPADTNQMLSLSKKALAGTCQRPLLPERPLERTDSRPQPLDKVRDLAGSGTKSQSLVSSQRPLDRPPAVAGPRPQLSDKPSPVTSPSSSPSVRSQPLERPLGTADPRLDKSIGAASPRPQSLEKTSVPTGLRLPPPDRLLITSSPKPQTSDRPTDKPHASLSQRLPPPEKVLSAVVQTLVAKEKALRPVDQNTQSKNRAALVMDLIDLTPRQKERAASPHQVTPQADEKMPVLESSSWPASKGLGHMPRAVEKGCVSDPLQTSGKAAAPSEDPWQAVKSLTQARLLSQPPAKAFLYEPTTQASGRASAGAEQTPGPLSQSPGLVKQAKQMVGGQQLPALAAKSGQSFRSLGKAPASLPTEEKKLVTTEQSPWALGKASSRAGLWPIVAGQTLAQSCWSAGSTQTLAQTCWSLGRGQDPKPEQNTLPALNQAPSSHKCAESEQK

[3] = target: T3, Histone-lysine N-methyltransferase NSD2 (Homo sapiens, UniProt O96028); assay: Inhibition of human NSD2 overexpressed in Escherichia coli BL21(DE3) using nucleosome as substrate by SPA analysis
T3 sequence (O96028 whole entry): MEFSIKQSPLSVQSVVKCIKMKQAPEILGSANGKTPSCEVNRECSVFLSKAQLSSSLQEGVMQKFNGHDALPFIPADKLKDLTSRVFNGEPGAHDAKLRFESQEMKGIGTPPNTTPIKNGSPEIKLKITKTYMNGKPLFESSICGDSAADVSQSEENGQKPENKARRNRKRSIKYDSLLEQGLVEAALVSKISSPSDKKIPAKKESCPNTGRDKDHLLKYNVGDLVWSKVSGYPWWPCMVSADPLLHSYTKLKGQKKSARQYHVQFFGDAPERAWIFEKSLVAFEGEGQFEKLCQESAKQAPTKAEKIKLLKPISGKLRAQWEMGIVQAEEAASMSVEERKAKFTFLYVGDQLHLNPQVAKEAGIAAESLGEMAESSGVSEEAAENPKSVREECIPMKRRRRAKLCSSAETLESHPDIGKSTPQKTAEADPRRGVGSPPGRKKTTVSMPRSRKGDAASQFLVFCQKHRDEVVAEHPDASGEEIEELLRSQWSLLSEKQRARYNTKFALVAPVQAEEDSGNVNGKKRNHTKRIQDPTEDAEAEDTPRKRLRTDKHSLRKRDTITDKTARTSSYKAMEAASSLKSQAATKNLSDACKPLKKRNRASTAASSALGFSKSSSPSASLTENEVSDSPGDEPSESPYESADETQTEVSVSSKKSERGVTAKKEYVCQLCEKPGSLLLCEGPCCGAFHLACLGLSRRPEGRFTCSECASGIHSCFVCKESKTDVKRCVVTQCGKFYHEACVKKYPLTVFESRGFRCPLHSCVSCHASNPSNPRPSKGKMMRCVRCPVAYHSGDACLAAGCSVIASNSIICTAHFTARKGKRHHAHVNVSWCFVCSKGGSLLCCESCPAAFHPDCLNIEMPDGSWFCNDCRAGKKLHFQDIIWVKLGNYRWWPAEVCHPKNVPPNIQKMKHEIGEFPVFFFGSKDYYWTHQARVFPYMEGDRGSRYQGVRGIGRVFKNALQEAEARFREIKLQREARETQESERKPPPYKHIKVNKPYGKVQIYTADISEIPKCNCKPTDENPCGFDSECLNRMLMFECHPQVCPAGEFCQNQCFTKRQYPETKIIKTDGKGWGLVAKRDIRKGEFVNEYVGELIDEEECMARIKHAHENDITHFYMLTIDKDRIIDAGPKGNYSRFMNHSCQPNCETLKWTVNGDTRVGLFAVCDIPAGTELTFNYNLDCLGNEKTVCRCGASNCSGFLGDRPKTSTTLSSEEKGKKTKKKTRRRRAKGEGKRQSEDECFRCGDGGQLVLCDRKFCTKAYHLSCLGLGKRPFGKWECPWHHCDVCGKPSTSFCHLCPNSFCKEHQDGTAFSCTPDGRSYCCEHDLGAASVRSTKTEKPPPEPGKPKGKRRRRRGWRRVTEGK

[4] = target: T1, Histone-lysine N-methyltransferase NSD3; assay: Inhibition of N-terminal GST-fused recombinant human NSD3 (1021 to 1322 residues) expressed in Escherichia coli using SAM as substrate preincubated for 20 mins followed by substrate addition measured after 1 hrs by hotspot assay
[5] = target: T2, Histone-lysine N-methyltransferase, H3 lysine-36 specific; assay: Inhibition of N-terminal polyhistidine-tagged recombinant human NSD1 (1538 to 2696 residues) expressed in baculovirus infected insect cell using SAM as substrate preincubated for 20 mins followed by substrate addition measured after 1 hrs by hotspot assay
[6] = target: T1, Histone-lysine N-methyltransferase NSD3; assay: Inhibition of NSD3 PWWP1 domain (unknown origin) assessed as […] by SPR analysis
[7] = target: T1, Histone-lysine N-methyltransferase NSD3; assay: Inhibition of NSD3 PWWP1 domain (unknown origin) by TR-FRET assay
[8] = target: T1, Histone-lysine N-methyltransferase NSD3; assay: Binding affinity to human NSD3 […] domain (247 to 402 residues) expressed in Escherichia coli assessed as dissociation constant
[9] = target: von Hippel-Lindau disease tumor suppressor/Histone-lysine N-methyltransferase NSD3 (Homo sapiens, UniProt P40337+Q9BZ95); assay: PROTAC activity at VHL/NSD3 […] domain in human MOLM-13 cells assessed as […] measured after 48 hrs by immunoblotting analysis; type: cell-based
Chain of von Hippel-Lindau disease tumor suppressor/Histone-lysine N-methyltransferase NSD3 (P40337 whole entry, one chain of several): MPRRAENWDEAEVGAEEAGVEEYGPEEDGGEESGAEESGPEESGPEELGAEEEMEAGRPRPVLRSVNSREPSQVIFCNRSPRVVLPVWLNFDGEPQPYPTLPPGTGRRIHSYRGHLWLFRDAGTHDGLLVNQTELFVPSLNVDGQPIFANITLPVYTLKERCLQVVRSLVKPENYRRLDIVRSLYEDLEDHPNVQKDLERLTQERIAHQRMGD

EOL1 = assay: Antiproliferative activity against human EOL1 cells assessed as cell growth inhibition measured after 8 days; type: functional, cell-based; settings: EOL1, 192 h
RS4-11 = assay: Antiproliferative activity against human RS4-11 cells assessed as cell growth inhibition measured after 8 days; type: functional, cell-based; settings: RS4-11, 192 h
MM1.S = assay: Antiproliferative activity against human MM1.S cells assessed as cell growth inhibition measured after 8 days; type: functional, cell-based; settings: 192 h
[10] = Inhibition of C-terminal NanoLuc-tagged human NSD3 PWWP1 domain/ C-terminal HaloTag fused histone H3 (unknown origin) interaction transfected in human U2OS cells; type: cell-based
MOLM-13 [11] = assay: Antiproliferative activity against human MOLM-13 cells assessed as cell growth inhibition measured after 6 days by RealTime-Glow MT cell viability assay; type: functional, cell-based; settings: MOLM-13, 144 h
[12] = Antiproliferative activity against human RN 22 cells assessed as cell growth inhibition measured after 6 days by RealTime-Glow MT cell viability assay; type: functional, cell-based; settings: RN 22, 144 h
MOLM-13 [13] = assay: Antiproliferative activity against human MOLM-13 cells assessed as cell growth inhibition measured after 6 days in presence of JQ1 by RealTime-Glow MT cell viability assay; type: functional, cell-based; settings: MOLM-13, 144 h
[14] = target: T1, Histone-lysine N-methyltransferase NSD3; assay: Inhibition of N-terminal His-TEV-tagged human NSD3 (1054 to 1285 residues ) expressed in Escherichia coli using 3[H] SAM as substrate measured after 30 mins by biochemical assay
[15] = target: T3, Histone-lysine N-methyltransferase NSD2; assay: Inhibition of N-terminal GST-tagged human NSD2 (941 to 1240 residues ) expressed in Escherichia coli using 3[H] SAM as substrate measured after 30 mins by biochemical assay

Work on `CN1C(=O)[C@@]23C[C@]4([C@]56C[C@@]78SS[C@@](CO)(C(=O)N7[C@H]5Nc5ccccc56)N(C)C8=O)c5ccccc5N[C@@H]4N2C(=O)[C@]1(CO)SS3` [CHAETOCIN] yielded an IC50 [1] of 11 µM, an IC50 [2] of 16 µM and an IC50 [3] of 6 µM. It also gave an IC50 [4] of 3.2 µM.

`O=C1C(Cl)=C(NCCN2CCOCC2)C(=O)c2ncccc21` showed an IC50 [5] of 0.11 µM and an IC50 [4] of 0.26 µM.

For `Cc1ccc(C(=O)Nc2ccc(S(=O)(=O)O)c3cc(S(=O)(=O)O)cc(S(=O)(=O)O)c23)cc1NC(=O)c1cccc(NC(=O)Nc2cccc(C(=O)Nc3cc(C(=O)Nc4ccc(S(=O)(=O)O)c5cc(S(=O)(=O)O)cc(S(=O)(=O)O)c45)ccc3C)c2)c1` [SURAMIN], the IC50 [1] was 12 µM and the IC50 [3] was 21 µM.

`Cc1cc(CN)cc(C)c1-c1ncn(C)c1-c1ccncc1` showed a Kd [6] of 9.7 µM and an IC50 [7] of 5.2 µM.

With `Cc1cc(CNCCCC(=O)NCCCCCCCCC(=O)N[C@H](C(=O)N2C[C@@H](O)C[C@@H]2C(=O)N[C@H](C)c2ccc(-c3scnc3C)cc2)C(C)(C)C)cc(C)c1-c1ncn(C)c1-c1ccnc2cc(F)ccc12` the Kd [8] was 1.3 µM, the EC50 [9] was 4.9 µM and the EC50 (EOL1) was 2.3 µM. It also gave an EC50 (RS4-11) of 3.5 µM and an EC50 (MM1.S) of 3.3 µM.

In the case of `Cc1noc(C)c1-c1ncn(C)c1-c1ccnc2cc(F)ccc12`, the Kd [6] is reported as 6.8 µM and the IC50 [7] is reported as 1.9 µM.

With `Nc1ncnc2c1ncn2[C@@H]1O[C@H](C[C@@H](N)CC[C@H](N)C(=O)O)[C@@H](O)[C@H]1O` [SINEFUNGIN] the IC50 [2] was 46 µM.

With `Cc1cc(CN)cc(C)c1-c1ncn(C)c1-c1ccnc2cc(F)ccc12` the IC50 [10] was 1.2 µM, the IC50 (MOLM-13 [11]) was 26.8 µM and the IC50 [12] was 13 µM. It also gave an IC50 (MOLM-13 [13]) of 0.139 µM.

In the case of `CCC[C@H](C)[C@H](NC(=O)[C@@H](NC(=O)CNC(C)=O)C(C)C)C(=O)N[C@@H](CCCNC(=N)N)C(=O)N[C@H](C(N)=O)[C@@H](C)CC` (Ac-GV[X1]RI-NH2), the IC50 [14] is reported as 3.2 µM and the IC50 [15] is reported as 22 µM.
